Data on three molecules can be found in US20020103172A1, “VITAMIN D3 DERIVATIVES” (priority 1996, published 2002).

Like-named read-outs stand apart in the source and are kept apart here.

The subject of data set [1] is HaCaT, a spontaneously immortalized, non-tumorigenic human skin keratinocyte cell line. Kind of data set: HaCaT antiproliferative assay measuring 3H-thymidine uptake. In kind it is cell-based. The conditions noted are these: for potency in the HaCaT-assay (psoriasis model), in words: compared with 1,25(OH)2D3; for HaCaT rel.: ratio between IC50 of 1,25(OH)2D3 and IC50 of the compound, 50% inhibition of 3H-thymidine incorporation, value >1 = more active than 1,25(OH)2D3. From the text:
A useful assay for the rating of test compounds for antiproliferative activity in skin cells, e.g. antipsoriatic effect, is the in vitro assay using HaCaT, a spontaneously immortalized, non-tumorigenic human skin keratinocyte cell line (Mørk Hansen, C. et al., J. Invest. Dermatol. 1, 44-48 (1996)), measuring ^3H -thymidine uptake.
(In general: Incorporation of labelled thymidine or its analogues reports DNA synthesis.)

Data set [2] relates to calcium metabolism. The experiment in a line: Calcemic activity in rats in vivo. The conditions noted are these: calcemic activity relative to 1,25(OH)2D3, low values preferred.
Protocol: (§1) The calcemic activity of the compounds was determined in rats in vivo, as previously described (Binderup, L., Bramm, E., Biochem. Pharmacol. 37, 889-895 (1988)).
The test system of the next data set is mouse spleen lymphocytes. Kind of data set: Mixed lymphocyte reaction assay (MLR), allogeneic stimulation, 3H-thymidine incorporation. Type of data set: cell-based. Conditions: for MLR rel.: ratio between IC50 of 1,25(OH)2D3 and IC50 of the compound, 72 hours incubation, 3H-thymidine incorporation, value >1 = more active than 1,25(OH)2D3. How it is done: An in vitro assay for the rating of test compounds for immunosuppressive potency is the mixed lymphocyte reaction assay, “MLR”, measuring the allogeneic stimulation of mouse spleen lymphocytes: lymphocytes, obtained from the spleens of BALB/c and CB6F1 mice, are stimulated by co-cultivating 5×10^6/ml cells from BALB/c mice (responders) with 7.5×10^6/ml cells from CB6F1 mice (inducers). The mixed cultures of lymphocytes are incubated with the test compounds for 72 hours. Cellular DNA-synthesis is assessed by the incorporation of ^3H-thymidine in the DNA.

The test system of data set [3] is calcium metabolism. Conditions: rat, in vivo.
Protocol: as §1

For `C=C1C(=CC=C2CCCC3(C)C(C(C)CCCCC(O)(CC)CC)=CCC23)CC(O)CC1O` [Compound 107, 1(S),3(R)-Dihydroxy-20(R)-(5-ethyl-5-hydroxyhept-1-yl)-9,10-seco-oregna-5(Z),7(E),10(19),16-tetraene], in data set [1], the “potency in the HaCaT-assay (psoriasis model), in words” value was “considerably more potent than 1,25(OH)2D3” and the HaCaT rel. turned out to be 43. Besides, the Calc. rel. in the data set with calcium metabolism [2] is given as 0.54. In the data set on mouse spleen lymphocytes, the “immunosuppressive activity (MLR), in words” value is on record as “potent effects” and the MLR rel. worked out at 5.

As for `C=C1/C(=C\C=C2/CCC[C@]3(C)[C@@H]([C@H](C)CCCC(C)(C)O)CC[C@@H]23)C[C@@H](O)C[C@@H]1O` [1,25, 1α,25-dihydroxy-vitamin D3, reference compound], in data set [1], the HaCaT rel. stood at 1. Moreover, in the data set on mouse spleen lymphocytes, the MLR rel. came out at 1. The Calc. rel. in the data set with calcium metabolism [3] is on record as 1.

Turning to `C=C1C(=CC=C2CCCC3(C)C(C(C)C=CC=CC(O)(CC)CC)=CCC23)CC(O)CC1O` [Compound 111, 1(S),3(R)-Dihydroxy-20(R)-(5-ethyl-5-hydroxyhepta-1(E),3(E)-dien-1-yl)-9,10-seco-pregna-5(Z),7(E),10(19)16-tetraene], in data set [1], the “potency in the HaCaT-assay (psoriasis model), in words” value is listed as “considerably more potent than 1,25(OH)2D3” and the HaCaT rel. worked out at 51. Moreover, in the data set on calcium metabolism [2], the Calc. rel. is on record as 1.47. In addition, in the data set on mouse spleen lymphocytes, the “immunosuppressive activity (MLR), in words” value is given as “potent effects” and the MLR rel. was 6.5.
